Results published in publication PMC8539346, “Synthesis and Evaluation of a Dimeric RGD Peptide as a Preliminary Study for Radiotheranostics with Radiohalogens” (Molecules, 2021).
Where two headings read alike, the source gives them in different places.

What was measured:
[1] = molecular target: T1, αvβ3 integrin (Homo sapiens, UniProt P05106+P06756); assay: αvβ3 integrin competitive binding assay with U-87 MG cells, radioligand [^125I]c[RGDy(3-I)V]; details: competitive inhibition of [^125I]c[RGDy(3-I)V] binding, mean ± SD for three independent experiments
T1 construct: host or cells: U-87 MG glioblastoma cells
Description: The affinity of 6 and E[c(RGDfK)]2, a dimer RGD peptide without iodine, for αvβ3 integrin was determined via a competitive binding assay with U-87 MG cells. Binding of the radioligand [^125I]c[RGDy(3-I)V] to αvβ3 integrin was inhibited by 6 and E[c(RGDfK)]2 in a concentration-dependent manner.
Binding affinities of synthesized peptides E[c(RGDfK)]2 and 6 for αvβ3 integrin were evaluated by competitive inhibition between the peptides and [^125I]c[RGDy(3-I)V], which was prepared by Fmoc solid-phase synthesis and following ^125I-labeling with chloramine-T method, to αvβ3 integrin according to a previously reported procedure. The peptides’ half maximal inhibitory concentration (IC50) values were calculated by curve fitting with nonlinear regression using GraphPad Prism 8.4.3 (GraphPad Software Inc., San Diego, CA, USA). Each data point is the average of four determinations, and IC50 values were expressed as mean ± standard deviation (SD) from three independent experiments.
Figure 2 αvβ3 Integrin binding assay. Representative displacement curves of the competitive binding of [^125I]c[RGDy(3-I)V] to αvβ3 integrin on U-87 MG cells with E[c(RGDfK)]2 and 6. Error bars represent SD.

[2] = format: physicochemical
Description: (§1) An experimental Log p value of [^125I]6 was −2.33 ± 0.04. The value was higher than that of the monomeric radioiodine-labeled RGD peptide [^125I]c[RGDf(4-I)K] (−3.04 ± 0.46) from our previous study.
The partition coefficient of [^125I]6 was measured as described previously. The radioactivity in each phase was measured with an auto-well gamma counter. The partition coefficient was determined by calculating the ratio of 1-octanol to the buffer and was expressed as a common logarithm (log P).

[3] = In vitro stability in PBS(−); format: physicochemical; details: PBS(−) pH 7.4, 37 °C, 24 h, 37 kBq tracer in 100 µL, RP-HPLC; mean ± SD for three samples
Description: An in vitro stability experiment of [^125I]6 in PBS(−) (pH 7.4) solution was performed. After incubation at 37 °C for 24 h, 90.8 ± 0.7% (mean ± SD for three samples) of its radioactivity remained intact.
To evaluate the stability of [^125I]6 in PBS(−), 10 µL of each tracer (37 kBq) was added to 90 µL of PBS(−) (pH 7.4), and the solutions were incubated at 37 °C for 24 h. After incubation, the samples were drawn, and the radioactivity was analyzed by RP-HPLC.

[4] = tested on: U-87 MG tumor bearing mice; details: mouse
Description: A comparison of the biodistribution experiments in U-87 MG tumor mice between [^125I]6 and [^125I]c[RGDf(4-I)K] is shown in Figure 3 and Table S1. [^125I]6 was highly accumulated in the tumor based on the results of the in vitro assay. […] (2.93 ± 0.08% ID/g). The accumulation of [^125I]6 in the liver and intestines also tended to be higher than that of [^125I]c[RGDf(4-I)K]. Meanwhile, it is known that the radioactive accumulation in the thyroid gland and stomach is an index of deiodination of radioiodine labeled probes.
Experiments with animals were conducted in strict accordance with the Guidelines for the Care and Use of Laboratory Animals of Kanazawa University. The experimental protocols were approved by the Committee on Animal Experimentation of Kanazawa University. The animals were housed with free access to food and water at 23 °C with a 12 h alternating light/dark schedule. We used a U-87 MG cell line because it was reported that the U-87 MG highly expresses αvβ3 integrin [26]. […] The radioactivity counts of ^125I was determined with an auto-well gamma counter (ARC-7010, Hitachi, Ltd., Tokyo, Japan) and corrected for background radiation and physical decay during counting. […]
Table S1. Biodistribution of radioactivity after intravenous injection of […]
Expressed as % injected dose per gram. […]
‡ Expressed as % injected dose.
Significance was determined by paired Student’s t test. […]

[5] = cited from earlier work
Text: as §1

[6] = molecular target: T1, αvβ3 integrin; details: monomer RGD peptide; cited from earlier work
Description: The binding affinity of 6 for αvβ3 integrin (IC50: 1.2 ± 0.5 nM) was higher than that of c[RGDf(4-I)K] […] It was reported that IC50 values of dimeric RGD peptides in the αvβ3 integrin competitive binding assay were an order lower than those of original monomeric RGD peptides. Thus, the IC50 value of dimerizing peptide 6 was consistent with those described in previous studies.

N=C(N)NCCC[C@@H]1NC(=O)[C@H](CCCCNC(=O)CC[C@H](N)C(=O)NCCCC[C@@H]2NC(=O)[C@@H](Cc3ccc(I)cc3)NC(=O)[C@H](CC(=O)O)NC(=O)CNC(=O)[C@H](CCCNC(=N)N)NC2=O)NC(=O)[C@@H](Cc2ccccc2)NC(=O)[C@H](CC(=O)O)NC(=O)CNC1=O [Compound 6, E[c(RGDfK)]{c[RGDf(4-I)K]}]
IC50 [1]: 0.0012 ± 0.0005 µM

E[c(RGDfK)]{[^125I]c[RGDf(4-I)K]}2 [[^125I]6]
Log p (partition coefficient) [2]: −2.33 ± 0.04
radioactivity remained intact [3]: 90.8 ± 0.7%
in vivo deiodination (radioactivity in neck containing thyroid glands and stomach) [4]: hardly occurred

[^125I]c[RGDf(4-I)K]
Log p (partition coefficient) [5]: −3.04 ± 0.46

c[RGDf(4-I)K]
IC50 [6]: 0.0232 ± 0.0172 µM
